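Compound exposure: 48 hours, 5 concentrations, 96-well plates. GI50 is the concentration that inhibits growth by half. TGI: concentration producing complete growth inhibition.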
Assays:
Test in all cases: NCI-60 cell line screen, 48 h
A498 renal = tested on: A498 renal
CCRF-CEM leukemia = tested on: CCRF-CEM leukemia
EKVX NSCLC = tested on: EKVX NSCLC
HL-60(TB) leukemia = tested on: HL-60(TB) leukemia
HT29 colon = tested on: HT29 colon
KM12 colon = tested on: KM12 colon
M14 melanoma = tested on: M14 melanoma
OVCAR-4 ovarian = tested on: OVCAR-4 ovarian
PC-3 prostate = tested on: PC-3 prostate
SF-295 CNS = tested on: SF-295 CNS
SF-539 CNS = tested on: SF-539 CNS
SK-MEL-5 melanoma = tested on: SK-MEL-5 melanoma
SN12C renal = tested on: SN12C renal
SNB-19 CNS = tested on: SNB-19 CNS
SNB-75 CNS = tested on: SNB-75 CNS
SW-620 colon = tested on: SW-620 colon
U251 CNS = tested on: U251 CNS
NCI-H522 lung = tested on: NCI-H522 lung

Row | Structure (SMILES) | TGI (A498 renal) [µM] | TGI (CCRF-CEM leukemia) [µM] | TGI (EKVX NSCLC) [µM] | TGI (HL-60(TB) leukemia) [µM] | TGI (HT29 colon) [µM] | TGI (KM12 colon) [µM] | TGI (M14 melanoma) [µM] | TGI (OVCAR-4 ovarian) [µM] | TGI (PC-3 prostate) [µM] | TGI (SF-295 CNS) [µM] | TGI (SF-539 CNS) [µM] | TGI (SK-MEL-5 melanoma) [µM] | TGI (SN12C renal) [µM] | TGI (SNB-19 CNS) [µM] | TGI (SNB-75 CNS) [µM] | TGI (SW-620 colon) [µM] | TGI (U251 CNS) [µM] | TGI (NCI-H522 lung) [µM] | GI50 (CCRF-CEM leukemia) [nM]
1 | CCOC(=O)C(NC(=O)C(CCCCNP(=O)(OCC)OCC)NC(=O)C(C)NC(C)=O)C(C)C (stereo not drawn) | > 100 | > 100 | > 100 | > 100 | > 100 | > 100 | > 100 | > 100 | > 100 | > 100 | > 100 | > 100 | > 100 | > 100 | > 100 | > 100 | > 100 |  | 
2 | CC(C)C1C(=O)NC(CO)Cc2c[nH]c3c(C(c4c[nH]c5ccccc45)C(O)CO)ccc(c23)N1C (stereo not drawn) | > 100 | > 100 | > 100 | > 100 | > 100 | > 100 | > 100 | > 100 |  | > 100 | > 100 | > 100 | > 100 | > 100 | > 100 | > 100 |  | > 100 | 
3 | Cc1ccc2[nH]c3c(C)c4c(c(C)c3c2c1)CN(C)C=C4 |  | 22 | 10 | 23.5 | 11.2 | 2.4 | 13.6 | 6.76 |  | 3.73 | 1.62 | 2.94 | 0.682 | 1.99 | 2.27 | 3 | 1.09 | 1.38 | 2330
4 | O=C(/C=C/c1ccc(O)c(O)c1)OC1C[C@@](O)(C(=O)O)C[C@@H](O)[C@H]1OC(=O)/C=C/c1ccc(O)c(O)c1 (stereo partly drawn) | > 100 | > 100 | > 100 | > 100 | > 100 | > 100 | > 100 | > 100 |  | > 100 | > 100 | > 100 |  |  |  | > 100 | > 100 | > 100 | 
5 | O=C(CSc1nnc(Cc2ccccc2)o1)Nc1cccc(Cl)c1 | > 100 | > 100 | > 100 | > 100 | > 100 | > 100 | > 100 | > 100 |  | > 100 | > 100 | > 100 | > 100 | > 100 | 89.5 | > 100 | > 100 | > 100 | 
6 | Cc1cc2nc3c(C#N)c(-c4ccccc4)/c(=C\Nc4ccc(Cl)cc4)c(=O)n3c2cc1C | > 100 | > 100 | > 100 |  |  | > 100 | > 100 | > 100 | > 100 | > 100 | > 100 | > 100 | > 100 | > 100 | > 100 | > 100 | > 100 | > 100 | 
7 | CCCCOCn1c(=O)[nH]c(=O)c2ccccc21 | > 100 | > 100 | > 100 | > 100 | > 100 | > 100 | > 100 | > 100 |  | > 100 | > 100 | > 100 | > 100 | 55.5 | 82.9 | > 100 | > 100 |  | 
